# Test results published in patent publication US7288510B2, “Nitrogen-containing ortho ester-based surfactant, its preparation and use” (priority 2001, dated 2007).
# Marks after values point to notes of the source that are not given here.
# Legend:
# [1] = hydrotrope test: clarity interval of cleaning formulation; assay type: physicochemical; settings: for Active amount of hydrotrope added: amount needed until the formulation of Table 10 was clear; for Cloud point of formulation: formulation of Table 10 with the hydrotrope
# Method: [table] Tetrapotassium pyrophoshate and sodium metasilicate pentahydrate were dissolved in tap water. The ethoxylated alcohol was added to this solution, which then turned cloudy. The hydrotrope was added until the solution was clear, and the required amount was recorded. Then the temperature was raised until the mixture went cloudy again.
# [2] = literature value; cited from earlier work
# [3] = surface tension at a concentration of 0.1%; assay type: physicochemical; settings: pH 8 buffer solution, bubble pressure method
# [4] = dynamic contact angle of alkaline formulations; assay type: physicochemical; settings: formulation diluted 1:10, on Parafilm PM-922
# Method: In this example, the wetting properties of alkaline formulations of some of the surfactants earlier described are tested by dynamic contact angle measurements.
# Formulations I-III above were diluted 1:10 before measurements. The dynamic contact angle was measured on a hydrophobic, polymeric material (Parafilm PM-922, American Can Company) using a First Ten Ångstroms FTÅ 200 instrument (Portsmouth, Va., USA) equipped with a video camera and an image analyzing unit.
# [5] = foaming behaviour (proposed ISO 4877 circulation method); assay type: physicochemical
# Method: The surfactant is dissolved in distilled water and diluted to a defined concentration. 500 ml of this solution is transferred to a thermostatable glass cylinder, graduated to 1500 ml. The solution is then circulated through a stainless steel tube using a pump. The solution enters the tube in the bottom of the glass cylinder and is released ca. 14 cm above the 1500-ml mark on the cylinder. The pump speed is 200 liter/h.
# The solution is circulated for 10 minutes (foam level recorded each minute), the pump is then stopped, and the foam level recorded for additional 5 minutes (proposed ISO-method ISO 4877).
compound,measurement,setting,value
disodium octyliminodipropionate,Active amount of hydrotrope added,[1],6.0 % (w/w)
same,Cloud point of formulation,[1],45-50 °C
CC(C)c1ccc(S(=O)(=O)[O-])cc1.[Na+] [Sodium cumene sulfonate],Active amount of hydrotrope added,[1],9.0 % (w/w)
same,Cloud point of formulation,[1],45-50 °C
"CCCCCCCCCCCCCC[N+](C)(C)C.[Br-] [Tetradecyltrimethylammonium bromide, n-tetradecyltrimethylammonium bromide]",cmc at 21° C.,[2],1.2^d g/l
same,γ at 0.10% and 21° C.,[3],41.5 mN/m
same,Contact angle after 10 s,[4],60.4 °
same,Contact angle after 30 s,[4],60.1 °
same,Contact angle after 1 min,[4],59.1 °
"CCCCCCCCCCCC[N+](C)(C)C.[Br-] [Dodecyltrimethylammonium bromide, n-dodecyltrimethylammonium bromide]",cmc at 21° C.,[2],4.9^c g/l
same,γ at 0.10% and 21° C.,[3],52.5 mN/m
same,foaming behaviour in words,[5],not affected by the addition of acid
same,Foam Volume,"[5]; 0.01% in distilled water, 1 min, circulating",160 mL
same,Foam Volume,"[5]; 0.01% in distilled water, 2 min, circulating",160 mL
same,Foam Volume,"[5]; 0.01% in distilled water, 3 min, circulating",160 mL
same,Foam Volume,"[5]; 0.01% in distilled water, 4 min, circulating",140 mL
same,Foam Volume,"[5]; 0.01% in distilled water, 5 min, circulating",140 mL
same,Foam Volume,"[5]; 0.01% in distilled water, 6 min, circulating",140 mL
same,Foam Volume,"[5]; 0.01% in distilled water, 7 min, circulating",140 mL
same,Foam Volume,"[5]; 0.01% in distilled water, 8 min, circulating",140 mL
same,Foam Volume,"[5]; 0.01% in distilled water, 9 min, circulating",140 mL
same,Foam Volume,"[5]; 0.01% in distilled water, 10 min, circulating",140 mL
same,Foam Volume,"[5]; 0.01% in distilled water, 11 min, pump stopped at 10 min",0 mL
same,Foam Volume,"[5]; 0.01% in distilled water, 12 min, pump stopped at 10 min",0 mL
same,Foam Volume,"[5]; 0.01% in distilled water, 13 min, pump stopped at 10 min",0 mL
same,Foam Volume,"[5]; 0.01% in distilled water, 14 min, pump stopped at 10 min",0 mL
same,Foam Volume,"[5]; 0.01% in distilled water, 15 min, pump stopped at 10 min",0 mL
same,Foam Volume,"[5]; 0.1% acid treated (pH 2.5, sulfuric acid, stirred 10 minutes), 1 min, circulating",820 mL
same,Foam Volume,"[5]; 0.1% acid treated (pH 2.5, sulfuric acid, stirred 10 minutes), 2 min, circulating",1100 mL
same,Foam Volume,"[5]; 0.1% acid treated (pH 2.5, sulfuric acid, stirred 10 minutes), 3 min, circulating",1280 mL
same,Foam Volume,"[5]; 0.1% acid treated (pH 2.5, sulfuric acid, stirred 10 minutes), 4 min, circulating",1360 mL
same,Foam Volume,"[5]; 0.1% acid treated (pH 2.5, sulfuric acid, stirred 10 minutes), 5 min, circulating",1380 mL
same,Foam Volume,"[5]; 0.1% acid treated (pH 2.5, sulfuric acid, stirred 10 minutes), 6 min, circulating",1380 mL
same,Foam Volume,"[5]; 0.1% acid treated (pH 2.5, sulfuric acid, stirred 10 minutes), 7 min, circulating",1360 mL
same,Foam Volume,"[5]; 0.1% acid treated (pH 2.5, sulfuric acid, stirred 10 minutes), 8 min, circulating",1360 mL
same,Foam Volume,"[5]; 0.1% acid treated (pH 2.5, sulfuric acid, stirred 10 minutes), 9 min, circulating",1350 mL
same,Foam Volume,"[5]; 0.1% acid treated (pH 2.5, sulfuric acid, stirred 10 minutes), 10 min, circulating",1340 mL
same,Foam Volume,"[5]; 0.1% acid treated (pH 2.5, sulfuric acid, stirred 10 minutes), 11 min, pump stopped at 10 min",800 mL
same,Foam Volume,"[5]; 0.1% acid treated (pH 2.5, sulfuric acid, stirred 10 minutes), 12 min, pump stopped at 10 min",340 mL
same,Foam Volume,"[5]; 0.1% acid treated (pH 2.5, sulfuric acid, stirred 10 minutes), 13 min, pump stopped at 10 min",280 mL
same,Foam Volume,"[5]; 0.1% acid treated (pH 2.5, sulfuric acid, stirred 10 minutes), 14 min, pump stopped at 10 min",120 mL
same,Foam Volume,"[5]; 0.1% acid treated (pH 2.5, sulfuric acid, stirred 10 minutes), 15 min, pump stopped at 10 min",60 mL
same,Foam Volume,"[5]; 0.1% in distilled water, 1 min, circulating",780 mL
same,Foam Volume,"[5]; 0.1% in distilled water, 2 min, circulating",1080 mL
same,Foam Volume,"[5]; 0.1% in distilled water, 3 min, circulating",1260 mL
same,Foam Volume,"[5]; 0.1% in distilled water, 4 min, circulating",1340 mL
same,Foam Volume,"[5]; 0.1% in distilled water, 5 min, circulating",1370 mL
same,Foam Volume,"[5]; 0.1% in distilled water, 6 min, circulating",1360 mL
same,Foam Volume,"[5]; 0.1% in distilled water, 7 min, circulating",1360 mL
same,Foam Volume,"[5]; 0.1% in distilled water, 8 min, circulating",1340 mL
same,Foam Volume,"[5]; 0.1% in distilled water, 9 min, circulating",1320 mL
same,Foam Volume,"[5]; 0.1% in distilled water, 10 min, circulating",1320 mL
same,Foam Volume,"[5]; 0.1% in distilled water, 11 min, pump stopped at 10 min",1200 mL
same,Foam Volume,"[5]; 0.1% in distilled water, 12 min, pump stopped at 10 min",800 mL
same,Foam Volume,"[5]; 0.1% in distilled water, 13 min, pump stopped at 10 min",400 mL
same,Foam Volume,"[5]; 0.1% in distilled water, 14 min, pump stopped at 10 min",260 mL
same,Foam Volume,"[5]; 0.1% in distilled water, 15 min, pump stopped at 10 min",180 mL
same,Contact angle after 10 s,[4],68.2 °
same,Contact angle after 30 s,[4],67.9 °
same,Contact angle after 1 min,[4],67.4 °
